Measured values from patent US10023841B2, “Methods and compositions for treating breast cancer with dendritic cell vaccines” (Baylor Research Institute, priority 2014, dated 2018).

Key:
TAK1 [1] = test: Phosphorylated TAK1 (FACS) in monocytes or mDCs; format: cell-based, human; conditions: monocytes; 10 ng/ml TGF-β1 for 5-90 minutes
TAK1 [2] = molecular target: T1, TAK1 (Homo sapiens, UniProt O43318); test: IL-1β in co-culture of cancer cells and myeloid cells upon TAK1 inhibition; format: cell-based
T1 construct: endogenous in cells; host or cells: human blood monocytes, monocyte-derived DCs and blood mDCs
T1 sequence (O43318 1-606): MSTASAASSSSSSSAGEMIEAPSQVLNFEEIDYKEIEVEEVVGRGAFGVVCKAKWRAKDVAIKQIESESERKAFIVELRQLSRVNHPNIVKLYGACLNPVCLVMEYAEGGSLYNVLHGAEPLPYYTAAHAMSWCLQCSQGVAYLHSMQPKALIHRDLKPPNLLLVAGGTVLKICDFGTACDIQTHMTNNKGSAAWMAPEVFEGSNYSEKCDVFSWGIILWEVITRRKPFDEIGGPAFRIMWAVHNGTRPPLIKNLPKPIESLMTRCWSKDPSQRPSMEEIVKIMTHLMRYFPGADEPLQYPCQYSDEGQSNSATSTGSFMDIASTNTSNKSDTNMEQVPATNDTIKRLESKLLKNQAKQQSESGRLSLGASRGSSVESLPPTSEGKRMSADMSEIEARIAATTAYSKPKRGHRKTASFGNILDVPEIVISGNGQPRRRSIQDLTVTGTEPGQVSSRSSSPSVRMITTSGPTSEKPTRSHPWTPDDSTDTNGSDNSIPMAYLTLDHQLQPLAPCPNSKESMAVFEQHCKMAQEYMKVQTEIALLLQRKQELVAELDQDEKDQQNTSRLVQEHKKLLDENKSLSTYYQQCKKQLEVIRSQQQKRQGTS
Method: When mDCs were co-cultured with MDA-MB231 cells for 5-90 minutes, phosphorylated (p)TAK1 could only be detected after 60 minutes (FIG. 7D). To confirm that the phosphorylation of TAK1 is TGF-β mediated, TGF-β signaling blocking reagents (TGF-β neutralizing antibody and TGF-βR kinase inhibitor) were added to the co-culture of cancer cells and mDCs. […] To examine whether TAK1-signaling participate in modulation of IL-1β production, a co-culture of cancer cells and myeloid cells was used. […]

TAK1 [3] = molecular target: T1, TAK1; test: Caspase-1 activity (FACS) in monocytes treated with cancer-culture sups; format: cell-based; conditions: monocytes treated with cancer-culture sups 16 hours; 200 nm TAK1 inhibitor
Method: For surface staining, cells were incubated with the antibodies for 30 minutes at 4° C. in the dark, then washed three times and fixed with 1% paraformaldehyde to be analyzed in a FACS Canto (Becton Dickinson). […] For caspase-1 staining, cells were incubated with substrates (CaspaLux-E1D2, Oncolmmunin, Inc.) for 50 minutes at 37° C. and washed with washing buffer 2 times, then stained for surface markers for 10 minutes at room temperature.
Monocytes were treated with cancer-culture sups for 16 hours in the presence of a TAK1 specific inhibitor or DMSO as control. Caspase-1 activity was measured using the FACS based method. Cells were gated based on CD11c^+ viable cells.

## TGF-β1: soluble TGF-β1 used to treat monocytes
TAK1 [1]
  phosphorylation of TAK1: induce phosphorylation of TAK1 as early as 15 minutes

## COc1cc(O)c2c(c1)/C=C/C[C@H](O)[C@H](O)C(=O)/C=C\C[C@H](C)OC2=O [TAK1 inhibitor, 5z-7-oxozeaenol]
TAK1 [2]; cancer cells with monocytes, MDDC or mDC, 48 hours
  IL-1β levels in co-culture supernatants (Luminex): Substantially lower amounts of IL-1β were secreted
TAK1 [2]; co-culture 16 hours
  expression of IL-1β by mDCs and monocytes (intracellular staining): prevented the expression of IL-1β by mDCs and monocytes
TAK1 [3]
  activation of caspase-1 in monocytes: prevented the activation of caspase-1
